Measurements from article PMC3205148 (International Journal of Nanomedicine, 2011).
Converted amounts (≈) assume the structure as drawn.

What was measured:
[1] = Solubility in Miglyol 812; assay type: physicochemical; conditions: Miglyol 812, oil or lipid
OVCAR-3 = conditions: day 300, OVCAR-3-bearing SCID mice; cited from earlier work

CC(=O)O[C@@]12CO[C@@H]1C[C@H](O)[C@@]1(C)C(=O)[C@H](O)C3=C(C)[C@@H](OC(=O)[C@H](O)[C@@H](NC(=O)OC(C)(C)C)c4ccccc4)C[C@@](O)([C@@H](OC(=O)c4ccccc4)[C@H]21)C3(C)C [DX, Docetaxel]
solubility [1]: 36.11 ± 0.1 mg/mL (≈ 44.7 mM)

CCCCCCCCCCCCCCC(Br)C(=O)O[C@@H](C(=O)O[C@H]1C[C@@]2(O)[C@@H](OC(=O)c3ccccc3)[C@@H]3[C@]4(OC(C)=O)CO[C@@H]4C[C@H](O)[C@@]3(C)C(=O)[C@H](O)C(=C1C)C2(C)C)[C@@H](NC(=O)OC(C)(C)C)c1ccccc1 (some centres unmarked) [2′-(2-bromo)-hexadecanoyl DX]
Survival (OVCAR-3): 100%
